Patent publication US7851474B2, “Dipiperazinyl ketones and related analogues” (Neurogen Corporation, priority 2005, dated 2010)

Target: T1, chimeric human H3 receptor (Homo sapiens, UniProt Q9Y5N1, E19D)
T1 construct: made in house; host or cells: Sf9 insect cells (baculovirus infection); P2 membrane preparation
Assay: Chimeric human H3 receptor GTP binding assay (agonist-stimulated GTP-gamma35S binding, Example 7)
Format: biochemical
Conditions: Table II "Ki", symbol "*": Ki in the assay of Example 7; read-out: Ki
Outline: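 IC50 values come from non-linear regression of dose-response curves of filter-bound GTP-gamma^35S, counted by scintillation. Membranes were from infected Sf9 cells carrying receptor plus G-protein subunits, 35 μg/tube, with 10 μM GDP present.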

T1 sequence (Q9Y5N1 with tags, fused parts or gaps E19D): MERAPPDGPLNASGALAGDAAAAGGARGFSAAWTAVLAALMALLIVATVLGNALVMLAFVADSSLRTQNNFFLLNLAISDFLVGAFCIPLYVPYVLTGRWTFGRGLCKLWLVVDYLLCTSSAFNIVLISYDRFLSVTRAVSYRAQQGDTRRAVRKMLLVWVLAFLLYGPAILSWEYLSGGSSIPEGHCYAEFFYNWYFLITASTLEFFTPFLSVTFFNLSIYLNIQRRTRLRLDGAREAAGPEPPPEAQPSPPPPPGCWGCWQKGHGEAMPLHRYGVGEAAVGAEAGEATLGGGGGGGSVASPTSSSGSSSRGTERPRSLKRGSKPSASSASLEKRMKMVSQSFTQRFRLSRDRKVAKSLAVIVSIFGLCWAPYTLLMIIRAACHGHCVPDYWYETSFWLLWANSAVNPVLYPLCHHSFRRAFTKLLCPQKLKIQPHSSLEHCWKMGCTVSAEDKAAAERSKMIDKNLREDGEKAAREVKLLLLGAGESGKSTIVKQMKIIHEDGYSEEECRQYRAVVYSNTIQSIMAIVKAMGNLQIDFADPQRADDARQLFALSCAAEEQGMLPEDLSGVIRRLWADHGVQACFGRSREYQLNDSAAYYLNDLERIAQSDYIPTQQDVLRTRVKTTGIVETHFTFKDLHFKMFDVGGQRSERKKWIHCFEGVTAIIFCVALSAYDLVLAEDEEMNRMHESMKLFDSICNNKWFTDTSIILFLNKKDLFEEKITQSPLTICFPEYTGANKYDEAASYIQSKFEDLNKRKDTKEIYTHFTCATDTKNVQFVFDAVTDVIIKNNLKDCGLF

Row | SMILES | Ki
1 | CCCCc1ccc(-c2cnc(N3CCN(CC(=O)N4CCN(C5CCC5)CC4)CC3)cn2)cc1 [Compound 901, 2-(4-butylphenyl)-5-{4-[2-(4-cyclobutylpiperazin-1-yl)-2-oxoethyl]piperazin-1-yl}pyrazine] | < 1000 nM
2 | O=C(CN1CCN(c2cnc(-c3ccc(Cl)cc3)cn2)CC1)N1CCN(C2CCC2)CC1 [Compound 904, 2-(4-chlorophenyl)-5-{4-[2-(4-cyclobutylpiperazin-1-yl)-2-oxoethyl]piperazin-1-yl}pyrazine] | < 1000 nM
3 | CC(C)(C)c1ccc(-c2cnc(N3CCN(CC(=O)N4CCN(C5CCC5)CC4)CC3)cn2)cc1 [Compound 910, 2-(4-tert-butylphenyl)-5-{4-[2-(4-cyclobutylpiperazin-1-yl)-2-oxoethyl]piperazin-1-yl}pyrazine] | < 1000 nM
4 | O=C(CN1CCN(c2cnc(-c3cc(C(F)(F)F)cc(C(F)(F)F)c3)cn2)CC1)N1CCN(C2CCC2)CC1 [Compound 913, 2-[3,5-bis(trifluoromethyl)phenyl]-5-{4-[2-(4-cyclobutylpiperazin-1-yl)-2-oxoethyl]piperazin-1-yl}pyrazine] | < 1000 nM
5 | O=C(CN1CCN(c2cnc(-c3ccc(Cl)c(C(F)(F)F)c3)cn2)CC1)N1CCN(C2CCC2)CC1 [Compound 914, 2-[4-chloro-3-(trifluoromethyl)phenyl]-5-{4-[2-(4-cyclobutylpiperazin-1-yl)-2-oxoethyl]piperazin-1-yl}pyrazine] | < 1000 nM
6 | O=C(CN1CCN(c2nc3ccccc3n2Cc2ccc(F)cc2)CC1)N1CCN(C2CCC2)CC1 [Compound 915, 2-{4-[2-(4-cyclobutylpiperazin-1-yl)-2-oxoethyl]piperazin-1-yl}-1-(4-fluorobenzyl)-1H-benzimidazole] | < 1000 nM
7 | O=C(CN1CCN(c2ncc(F)cn2)CC1)N1CCN(C2CCC2)CC1 [Compound 916, 2-{4-[2-(4-cyclobutylpiperazin-1-yl)-2-oxoethyl]piperazin-1-yl}-5-fluoropyrimidine] | < 1000 nM
8 | O=C(CN1CCN(c2cnc(-c3ccncc3)cn2)CC1)N1CCN(C2CCC2)CC1 [Compound 917, 2-{4-[2-(4-cyclobutylpiperazin-1-yl)-2-oxoethyl]piperazin-1-yl}-5-pyridin-4-ylpyrazine] | < 1000 nM
9 | O=C(CN1CCN(c2cnc(-c3ccccc3)cn2)CC1)N1CCN(C2CCC2)CC1 [Compound 918, 2-{4-[2-(4-cyclobutylpiperazin-1-yl)-2-oxoethyl]piperazin-1-yl}-5-phenylpyrazine] | < 1000 nM
10 | O=C(CN1CCN(c2cnc(-c3ccc(F)cc3)cn2)CC1)N1CCN(C2CCC2)CC1 [Compound 919, 2-{4-[2-(4-cyclobutylpiperazin-1-yl)-2-oxoethyl]piperazin-1-yl}-5-(4-fluorophenyl)pyrazine] | < 1000 nM
11 | Cc1ccc(-c2cnc(N3CCN(CC(=O)N4CCN(C5CCC5)CC4)CC3)cn2)cc1 [Compound 925, 2-{4-[2-(4-cyclobutylpiperazin-1-yl)-2-oxoethyl]piperazin-1-yl}-5-(4-methylphenyl)pyrazine] | < 1000 nM
12 | CC(C)c1cccc(-c2cnc(N3CCN(CC(=O)N4CCN(C5CCC5)CC4)CC3)cn2)c1 [Compound 926, 2-{4-[2-(4-cyclobutylpiperazin-1-yl)-2-oxoethyl]piperazin-1-yl}-5-(3-isopropylphenyl)pyrazine] | < 1000 nM
13 | CC(C)c1ccc(-c2cnc(N3CCN(CC(=O)N4CCN(C5CCC5)CC4)CC3)cn2)cc1 [Compound 927, 2-{4-[2-(4-cyclobutylpiperazin-1-yl)-2-oxoethyl]piperazin-1-yl}-5-(4-isopropylphenyl)pyrazine] | < 1000 nM
14 | Cc1cc(C)cc(-c2cnc(N3CCN(CC(=O)N4CCN(C5CCC5)CC4)CC3)cn2)c1 [Compound 929, 2-{4-[2-(4-cyclobutylpiperazin-1-yl)-2-oxoethyl]piperazin-1-yl}-5-(3,5-dimethylphenyl)pyrazine] | < 1000 nM
15 | CCc1ccc(-c2cnc(N3CCN(CC(=O)N4CCN(C5CCC5)CC4)CC3)cn2)cc1 [Compound 930, 2-{4-[2-(4-cyclobutylpiperazin-1-yl)-2-oxoethyl]piperazin-1-yl}-5-(4-ethylphenyl)pyrazine] | < 1000 nM
16 | CCCc1ccc(-c2cnc(N3CCN(CC(=O)N4CCN(C5CCC5)CC4)CC3)cn2)cc1 [Compound 931, 2-{4-[2-(4-cyclobutylpiperazin-1-yl)-2-oxoethyl]piperazin-1-yl}-5-(4-propylphenyl)pyrazine] | < 1000 nM
17 | O=C(CN1CCN(c2cnc(-c3ccc(OC(F)(F)F)cc3)cn2)CC1)N1CCN(C2CCC2)CC1 [Compound 934, 2-{4-[2-(4-cyclobutylpiperazin-1-yl)-2-oxoethyl]piperazin-1-yl}-5-[4-(trifluoromethoxy)phenyl] pyrazine] | < 1000 nM

Results, then the molecule that gave them:

Row | Ki | SMILES
18 | < 1000 nM | O=C(CN1CCN(c2cnc(-c3ccc(Cl)cc3F)cn2)CC1)N1CCN(C2CCC2)CC1 [Compound 902, 2-(4-chloro-2-fluorophenyl)-5-{4-[2-(4-cyclobutylpiperazin-1-yl)-2-oxoethyl]piperazin-1-yl}pyrazine]
19 | < 1000 nM | O=C(CN1CCN(c2cnc(-c3ccc(Cl)c(F)c3)cn2)CC1)N1CCN(C2CCC2)CC1 [Compound 903, 2-(4-chloro-3-fluorophenyl)-5-{4-[2-(4-cyclobutylpiperazin-1-yl)-2-oxoethyl]piperazin-1-yl}pyrazine]
20 | < 1000 nM | O=C1CCc2cc(N3CCC(C(=O)OCC(=O)N4CCN(C5CCC5)CC4)CC3)ccc21 [Compound 905, 2-(4-cyclobutylpiperazin-1-yl)-2-oxoethyl 1-(1-oxo-2,3-dihydro-1H-inden-5-yl)piperidine-4-carboxylate]
21 | < 1000 nM | O=C(OCC(=O)N1CCN(C2CCC2)CC1)N1C=CC2(CC1)c1ccccc1C(=O)N2Cc1ccccc1 (centres unmarked) [Compound 906, 2-(4-cyclobutylpiperazin-1-yl)-2-oxoethyl 2-benzyl-3-oxo-2,2′,3,3′-tetrahydro-1′H-spiro[isoindole-1,4′-pyridine]-1′-carboxylate]
22 | < 1000 nM | O=C1CCc2cc(N3CCC(C(=O)OCC(=O)N4CCN(C5CCCC5)CC4)CC3)ccc21 [Compound 907, 2-(4-cyclopentylpiperazin-1-yl)-2-oxoethyl 1-(1-oxo-2,3-dihydro-1H-inden-5-yl)piperidine-4-carboxylate]
23 | < 1000 nM | CC(=O)c1ccc(N2CCC(C(=O)OCC(=O)N3CCN(C4CCCC4)CC3)CC2)cc1 [Compound 908, 2-(4-cyclopentylpiperazin-1-yl)-2-oxoethyl 1-(4-acetylphenyl)piperidine-4-carboxylate]
24 | < 1000 nM | O=C1CCc2cc(N3CCN(C(=O)OCC(=O)N4CCN(C5CCCC5)CC4)CC3)ccc21 [Compound 909, 2-(4-cyclopentylpiperazin-1-yl)-2-oxoethyl 4-(1-oxo-2,3-dihydro-1H-inden-5-yl)piperazine-1-carboxylate]
25 | < 1000 nM | COc1ccc(Cl)cc1-c1cnc(N2CCN(CC(=O)N3CCN(C4CCC4)CC3)CC2)cn1 [Compound 911, 2-(5-chloro-2-methoxyphenyl)-5-{4-[2-(4-cyclobutylpiperazin-1-yl)-2-oxoethyl]piperazin-1-yl}pyrazine]
26 | < 1000 nM | O=C(CN1CCN(c2cnc(-c3cc(C(F)(F)F)ccc3Cl)cn2)CC1)N1CCN(C2CCC2)CC1 [Compound 912, 2-[2-chloro-5-(trifluoromethyl)phenyl]-5-{4-[2-(4-cyclobutylpiperazin-1-yl)-2-oxoethyl]piperazin-1-yl}pyrazine]
27 | < 1000 nM | Cc1ccc(-c2cnc(N3CCN(CC(=O)N4CCN(C5CCC5)CC4)CC3)cn2)c(F)c1 [Compound 920, 2-{4-[2-(4-cyclobutylpiperazin-1-yl)-2-oxoethyl]piperazin-1-yl}-5-(2-fluoro-4-methylphenyl)pyrazine]
28 | < 1000 nM | Cc1ccc(F)c(-c2cnc(N3CCN(CC(=O)N4CCN(C5CCC5)CC4)CC3)cn2)c1 [Compound 921, 2-{4-[2-(4-cyclobutylpiperazin-1-yl)-2-oxoethyl]piperazin-1-yl}-5-(2-fluoro-5-methylphenyl)pyrazine]
29 | < 1000 nM | Cc1ccc(-c2cnc(N3CCN(CC(=O)N4CCN(C5CCC5)CC4)CC3)cn2)cc1F [Compound 922, 2-{4-[2-(4-cyclobutylpiperazin-1-yl)-2-oxoethyl]piperazin-1-yl}-5-(3-fluoro-4-methylphenyl)pyrazine]
30 | < 1000 nM | Cc1cc(-c2cnc(N3CCN(CC(=O)N4CCN(C5CCC5)CC4)CC3)cn2)ccc1F [Compound 923, 2-{4-[2-(4-cyclobutylpiperazin-1-yl)-2-oxoethyl]piperazin-1-yl}-5-(4-fluoro-3-methylphenyl)pyrazine]
31 | < 1000 nM | Cc1cccc(-c2cnc(N3CCN(CC(=O)N4CCN(C5CCC5)CC4)CC3)cn2)c1 [Compound 924, 2-{4-[2-(4-cyclobutylpiperazin-1-yl)-2-oxoethyl]piperazin-1-yl}-5-(3-methylphenyl)pyrazine]
32 | < 1000 nM | Cc1ccc(-c2cnc(N3CCN(CC(=O)N4CCN(C5CCC5)CC4)CC3)cn2)cc1C [Compound 928, 2-{4-[2-(4-cyclobutylpiperazin-1-yl)-2-oxoethyl]piperazin-1-yl}-5-(3,4-dimethylphenyl)pyrazine]
33 | < 1000 nM | CCc1cccc(-c2cnc(N3CCN(CC(=O)N4CCN(C5CCC5)CC4)CC3)cn2)c1 [Compound 932, 2-{4-[2-(4-cyclobutylpiperazin-1-yl)-2-oxoethyl]piperazin-1-yl}-5-(3-ethylphenyl)pyrazine]
34 | < 1000 nM | COc1cccc(-c2cnc(N3CCN(CC(=O)N4CCN(C5CCC5)CC4)CC3)cn2)c1 [Compound 933, 2-{4-[2-(4-cyclobutylpiperazin-1-yl)-2-oxoethyl]piperazin-1-yl}-5-(3-methoxyphenyl)pyrazine]
35 | < 1000 nM | CCOc1cccc(-c2cnc(N3CCN(CC(=O)N4CCN(C5CCC5)CC4)CC3)cn2)c1 [Compound 935, 2-{4-[2-(4-cyclobutylpiperazin-1-yl)-2-oxoethyl]piperazin-1-yl}-5-(3-ethoxyphenyl)pyrazine]
